The values that follow come from ChEMBL document CHEMBL1156236, “Trypanoside, anti-tuberculosis, leishmanicidal, and cytotoxic activities of tetrahydrobenzothienopyrimidines” (Bioorg Med Chem, 2010).

For one series, the system named is Vero. Description: Cytotoxicity against african green monkey Vero cells after 72 hrs by MTS assay. To be noted: Chlorocebus sabaeus, Vero, 72 h.
In another series the test system is Trypanosoma cruzi. Description: Antitrypanosomal activity against Trypanosoma cruzi tulahuen C4 trypomastigotes infected in african green monkey Vero cells assessed as CPRG cleavage after 120 hrs by microplate reader. The series is classed as functional, organism-based.
Series [1] can be described thus: Selectivity index, ratio of IC50 for african green monkey Vero cells to IC50 for Trypanosoma cruzi tulahuen C4.
Series [2] deals with Mycobacterium tuberculosis. Briefly: Antitubercular activity against Mycobacterium tuberculosis H37Rv ATCC 27294 after 7 days by microplate alamar blue assay. The format is functional. To be noted: H37Rv ATCC 27294, 168 h.
A short description of series [3]: Cytotoxicity against BALB/c mouse macrophages after 48 hrs by trypan blue dye exclusion method. To be noted: Macrophage. The series is classed as cell-based.
Another series relates to Leishmania amazonensis. Briefly: Antileishmanial activity against Leishmania amazonensis MHOM/BR/76/LTB-012 amastigotes infected BALB/c mouse macrophages after 48 hrs by MTT assay. The series is classed as functional, organism-based. To be noted: MHOM/BR/76/LTB-012, 48 h. For orientation: Formazan colour is commonly taken as a measure of viable cells.
Series [4] is described as follows: Selectivity index, ratio of IC50 for BALB/c mouse macrophages to IC50 for Leishmania amazonensis MHOM/BR/76/LTB-012.
Series [5] in a line: Cytotoxicity against BALB mouse 3T3 cells. The format is cell-based. To be noted: BALB 3T3 cells.
The next series concerns NCI-H460. Briefly: Cytotoxicity against human NCI-H460 cells. The series is classed as functional.
The subject of the next series is DU-145. Briefly: Cytotoxicity against human DU145 cells. The format is functional.
A further series has as its system MCF7. Briefly: Cytotoxicity against human MCF7 cells. The series is classed as functional.
A further series relates to M14. Description: Cytotoxicity against human M14 cells. The series is classed as functional.
Another series has as its system HT-29. Description: Cytotoxicity against human HT-29 cells. The format is functional.
The next series deals with K562. Briefly: Cytotoxicity against human K562 cells. The series is classed as functional.

Broadly, the IC50 is the concentration that gives 50% inhibition. As a reminder, the MIC is the lowest concentration found to suppress growth. A word on the GI50: it is the concentration that inhibits growth by half.

Where only a bound is given, the exact number is not on record here.

On to `COc1ccc(/C=N/Nc2ncnc3sc4c(c23)CCCC4)c(OC)c1`, for which the IC50 came out at 32.6 µM with Vero, 18.5 µM in the series with Trypanosoma cruzi, 144 µM in series [3] and 33.2 µM in the series on Leishmania amazonensis. The selectivity ratio in [1] (Vero cells) came out at 1.8. Also, the minimum inhibitory concentration (MIC) in series [2] was greater than 250 µM. For the same molecule, the “Ratio IC50” value in [4] was 4.3. Also, the 50% growth inhibitory concentration (GI50) was found to be 19.9 µM in [5]; 29.5 µM in the series on NCI-H460; 20 µM in the series on DU-145; 21.1 µM in the series on MCF7; 94.4 µM with M14; 20 µM with HT-29. The molecule further gave a GI50 in the series with K562 of 7.9 µM.
For `c1ccc(C(=NNc2ncnc3sc4c(c23)CCCC4)c2ccccc2)cc1`, the figures for the concentration for half-maximal inhibition (IC50) (in the series on Trypanosoma cruzi; in series [3]; in the series on Leishmania amazonensis) were greater than 25 µM, 156 µM and 182 µM, respectively. The molecule also had a minimal inhibitory concentration (MIC) in [2] greater than 250 µM. Also, the “Ratio IC50” value in series [4] was 0.9. Also, the GI50 (in [5]; in the series on NCI-H460; in the series on DU-145; in the series with MCF7; with M14; in the series with HT-29) was greater than 170 µM in each case. For the same molecule, in the series on K562, the concentration for 50% growth inhibition (GI50) was greater than 170 µM.
In the case of `Fc1ccccc1/C=N/Nc1ncnc2sc3c(c12)CCCC3`, the IC50 stood at 18.4 µM in the series on Vero, 10.8 µM with Trypanosoma cruzi, 10.2 µM in [3] and 3.3 µM in the series on Leishmania amazonensis. Besides, in series [1] (Vero cells), the selectivity ratio amounted to 1.7. Moreover, the minimal inhibitory concentration (MIC) in series [2] was greater than 300 µM. In series [4], the “Ratio IC50” value was determined as 3.1. Further, the 50% growth inhibitory concentration (GI50) (in [5]; in the series with NCI-H460; with DU-145; in the series with MCF7; with M14; in the series with HT-29) was greater than 250 µM each time. This molecule also displayed a GI50 in the series on K562 of 81.2 µM.
Turning to `Cc1ccc(/C=N/Nc2ncnc3sc4c(c23)CCCC4)cc1`, the IC50 in the series with Trypanosoma cruzi is greater than 25 µM; in series [3] it was 19.4 µM; in the series with Leishmania amazonensis, 42.6 µM. The MIC in series [2] was greater than 250 µM. In addition, the “Ratio IC50” value in series [4] is 0.5. The concentration for 50% growth inhibition (GI50) in [5] is 37.5 µM; with NCI-H460 it was 133 µM; with DU-145, greater than 170 µM; in the series with MCF7, 12.9 µM; with M14, greater than 170 µM; in the series with HT-29, greater than 170 µM. The molecule further came in with a concentration for 50% growth inhibition (GI50) in the series with K562 of 7.1 µM.
In the case of `N#Cc1ccc(/C=N/Nc2ncnc3sc4c(c23)CCCC4)cc1`, the half-inhibitory concentration (IC50) in the series on Trypanosoma cruzi is greater than 25 µM; in series [3] it was 162 µM; with Leishmania amazonensis, 32.3 µM. The molecule also returned a minimal inhibitory concentration (MIC) in series [2] greater than 300 µM. In addition, the “Ratio IC50” value in [4] is 5. The concentration for 50% growth inhibition (GI50) is 150 µM in series [5]; greater than 170 µM in the series with NCI-H460; greater than 170 µM in the series on DU-145; 102 µM in the series with MCF7; greater than 170 µM in the series with M14; greater than 170 µM in the series on HT-29. The same molecule yielded a concentration for 50% growth inhibition (GI50) in the series on K562 greater than 170 µM.
With `C(=N\Nc1ncnc2sc3c(c12)CCCC3)/c1cccc2ccccc12`, the concentration for half-maximal inhibition (IC50) amounted to 2.8 µM in the series on Vero, 13 µM with Trypanosoma cruzi, 16.6 µM in series [3] and 12.7 µM in the series with Leishmania amazonensis. Further, in series [1] (Vero cells), the selectivity ratio was determined as 0.2. The minimum inhibitory concentration (MIC) in [2] is greater than 250 µM. Moreover, in [4], the “Ratio IC50” value is 1.3. Also, the GI50 in [5] was found to be 16.7 µM; in the series on NCI-H460, 19.9 µM; in the series on DU-145 it was 24.1 µM; in the series on MCF7, 6.3 µM; in the series on M14, 18.4 µM; in the series on HT-29, 6.2 µM. For the same molecule, halving of growth in the series on K562 (GI50) required 4.7 µM.
As for `C[C@@H]1[C@H](O)[C@@H](C)/C=C/C=C/C=C/C=C/C=C/C=C/C=C/[C@H](O[C@@H]2O[C@H](C)[C@@H](O)[C@H](N)[C@@H]2O)C[C@@H]2O[C@](O)(C[C@@H](O)C[C@@H](O)[C@H](O)CC[C@@H](O)C[C@@H](O)CC(=O)O[C@H]1C)C[C@H](O)[C@H]2C(=O)O` [AMPHOTERICIN B], the half-inhibitory concentration (IC50) in [3] is 5.4 µM. For the same molecule, the “Ratio IC50” value in series [4] came out at 54.
Take `O=[N+]([O-])c1ccc(/C=N/Nc2ncnc3sc4c(c23)CCCC4)cc1`: the values for the IC50 (in the series with Trypanosoma cruzi; in series [3]; in the series on Leishmania amazonensis) were greater than 25 µM, 199 µM and 38.5 µM, respectively. The same molecule displayed a minimal inhibitory concentration (MIC) in series [2] greater than 250 µM. Moreover, the “Ratio IC50” value in series [4] is recorded as 5.2. In addition, the 50% growth inhibitory concentration (GI50) (in series [5]; in the series with NCI-H460; with DU-145; in the series on MCF7; in the series on M14; in the series on HT-29) was greater than 170 µM each time. In addition, in the series on K562, the GI50 was greater than 170 µM.
In the case of `COc1cc(/C=N/Nc2ncnc3sc4c(c23)CCCC4)cc(OC)c1O`, the figures for the 50% inhibitory concentration (IC50) (in the series on Trypanosoma cruzi; in [3]; in the series on Leishmania amazonensis) were greater than 25 µM, 121 µM and 40.8 µM, respectively. In [2], this molecule had a minimum inhibitory concentration (MIC) greater than 250 µM. Moreover, in series [4], the “Ratio IC50” value was found to be 3. The GI50 was 27.3 µM in [5]; greater than 170 µM with NCI-H460; 27.2 µM in the series on DU-145; greater than 170 µM with MCF7; greater than 170 µM in the series on M14; greater than 170 µM in the series on HT-29. The molecule also registered a GI50 with K562 greater than 170 µM.
`COc1cc(/C=N/Nc2ncnc3sc4c(c23)CCCC4)cc(OC)c1OC`: the concentration for half-maximal inhibition (IC50) in the series on Trypanosoma cruzi is greater than 25 µM; in [3], 8.9 µM; in the series with Leishmania amazonensis, 7.2 µM. Further, the MIC in series [2] is greater than 250 µM. Further, the “Ratio IC50” value in series [4] was determined as 1.2. The 50% growth inhibitory concentration (GI50) in [5] turned out to be 22.5 µM; with NCI-H460, 28.3 µM; with DU-145, 22.5 µM; with MCF7, 10.5 µM; in the series on M14, 15.6 µM; with HT-29 it was 11.4 µM. The molecule also gave a 50% growth inhibitory concentration (GI50) in the series with K562 of 4.7 µM.
In the case of `CC1CS(=O)(=O)CCN1/N=C/c1ccc([N+](=O)[O-])o1` (centres undefined) [NIFURTIMOX], the concentration for half-maximal inhibition (IC50) with Vero came to 94 µM; in the series with Trypanosoma cruzi, 4.5 µM. The selectivity ratio in series [1] (vero) was 20.8.
Consider `C(=N\Nc1ncnc2sc3c(c12)CCCC3)/c1ccncc1`, for which the IC50 is greater than 25 µM in the series on Trypanosoma cruzi, 154 µM in [3] and 233 µM in the series with Leishmania amazonensis. The minimum inhibitory concentration (MIC) in series [2] was greater than 300 µM. For the same molecule, the “Ratio IC50” value in [4] was determined as 0.7. In addition, the GI50 in series [5] was 83.2 µM; with NCI-H460, 169 µM; in the series on DU-145, 83.9 µM; in the series with MCF7, 83.9 µM; with M14, greater than 150 µM; in the series on HT-29 it was 153 µM. Besides, halving of growth with K562 (GI50) required 109 µM.
Molecule `COc1cc(/C=N/Nc2ncnc3sc4c(c23)CCCC4)ccc1O` came in with an IC50 in the series with Leishmania amazonensis of 7.2 µM.
For `O=c1[nH]cc(F)c(=O)[nH]1` [FLUOROURACIL], the GI50 in series [5] was less than 3 µM; in the series on NCI-H460 it was 2.3 µM; with DU-145, 5.3 µM; with MCF7, 4.5 µM; with M14 it was 32.4 µM; with K562 it was 89.9 µM.
Turning to `O=[N+]([O-])c1ccccc1/C=N/Nc1ncnc2sc3c(c12)CCCC3`, the IC50 in the series with Trypanosoma cruzi was greater than 25 µM; in series [3], greater than 200 µM; in the series with Leishmania amazonensis, 108 µM. In addition, the MIC in [2] is greater than 250 µM. Further, the 50% growth inhibitory concentration (GI50) in [5] was greater than 170 µM; with NCI-H460 it was 52.9 µM; with DU-145 it was 103 µM; in the series with MCF7, 52 µM; with M14 it was greater than 170 µM; in the series on HT-29, greater than 170 µM. Moreover, the 50% growth inhibitory concentration (GI50) in the series on K562 is greater than 170 µM.
